Reference: patent US20240197820A1, “Bacteriocin for new application” (priority 2021, published 2024)
“Also recorded” adds a separate entry of the source. No end group written: not given here.

What was measured:
[1] = test system: Lactococcus lactis LMG IL 1403; conditions: cited from earlier work
[2] = test system: S. epidermidis ATCC 12228; experiment: MIC assay in liquid culture (endpoint OD600); type: cell-based, Staphylococcus epidermidis; conditions: tested concentrations 0.24 to 250 μg/ml
Experimental: (§1) Bacterial strains were grown overnight in liquid culture on rotary shakers or on agar plates using M17 media supplemented with 0.5% glucose. S. aureus ATCC 6538 and S. epidermidis ATCC 12228 liquid cultures and agar plates were grown anaerobically at 37° C. Culture volume utilized in MIC assays was 200 μl.
(§2) Determination of MIC values of a cerein 7B peptide (SEQ ID NO: 2) was performed in liquid cultures of S. aureus ATCC 6538 and S. epidermidis ATCC 12228. Growth was assessed by measuring endpoint OD600 values in a Spectramax i3 (Molecular Devices, CA, USA). Minimum inhibitory concentration (MIC) was defined as the lowest concentration which inhibited 50% of the growth of cultures as compared to reference cultures not exposed to the peptide. Concentration of the peptide was 250 μg/ml in well 11, diluted 2-fold per subsequent well as shown in Table 3 (concentrations rounded to the second decimal): […]

[3] = test system: S. epidermidis ATCC 12228; experiment: Antimicrobial activity test on inoculated M17 agar plates (inhibition halo); type: cell-based, Staphylococcus epidermidis; conditions: 2 μl of aqueous solution, 1 mg/ml, overnight incubation
Experimental: as §1
(§3) Antimicrobial activity of bacteriocin peptides was tested on M17 agar plates in Examples 1 and 3.
(§4) In Example 1, 2 μl of cerein 7B peptide (SEQ ID NO: 2) aqueous solutions at a concentration of 1 mg/ml were deposited on inoculated M17 agar plates of S. aureus ATCC 6538 and S. epidermidis ATCC 12228. In the case of S. epidermidis ATCC 12228, an equivalent amount of aureocin A53 aqueous solution (1 mg/ml concentration) was used as positive control.

S. aureus ATCC 6538 [4] = experiment: as above; type: cell-based, Staphylococcus aureus; conditions: 1 mg/ml, overnight incubation
Experimental: as §1, §3, §4
In Example 3, 5 μl of bacteriocin peptides (SEQ ID NO: 2, 4-51) aqueous solutions at a concentration of 1 mg/ml were deposited on inoculated M17 agar plates of S. aureus ATCC 6538. After overnight incubation, the presence of an inhibition halo was considered as a positive result of antimicrobial activity.

S. aureus ATCC 6538 [5] = experiment: MIC assay in liquid culture (endpoint OD600); type: cell-based, Staphylococcus aureus; conditions: liquid culture 200 μl, M17 + 0.5% glucose, 37° C., overnight, 2-fold dilutions from 250 μg/ml
Experimental: as §1, §2

Substance | activity against Lactococcus lactis LMG IL 1403 [1] | growth inhibition in MIC assay [2] | inhibition halo (antimicrobial activity on agar plate) [3] | inhibition halo (antimicrobial activity on agar plate) (S. aureus ATCC 6538 [4]; 2 μl of aqueous solution, chemically synthesized peptide) | MIC (lowest concentration which inhibited 50% of the growth of cultures) (S. aureus ATCC 6538 [5]) [µg/mL] | antimicrobial activity of mutants (inhibition halo) (S. aureus ATCC 6538 [4]; 5 μl of aqueous solution, M17 agar plate, peptides synthesized in vitro (PURExpress))
GWWNSWGKCVAGTIGGAGTGGLGGAAAGSAVPVIGTGIGGAIGGVSGGLTGAATFC (cysteines drawn unpaired) [cerein 7B] | demonstrated its activity | No growth inhibition was observed | no inhibition halo was visible; also recorded: no inhibition halo was present | An inhibition halo was visible | 15.63 | 
GWWNSWGKCVAGTIGGAGTGGLGGAAAGSAVPVIGTGIGGAIGGVSGGLTGAATFCW (mutant 48 (E2)) [SEQ ID NO: 51] |  |  |  |  |  | did not compromise its antimicrobial activity
aureocin A53 [reference compound] |  |  | an inhibition halo was present |  |  | 
